For one assay, the system named is MDA-MB-231 cells. Description: CCK-8 antiproliferative assay, MDA-MB-231. The conditions noted are these: Homo sapiens, cell viability (CCK-8), 48 h. The class given is cell-based. As for the experimental part:
(§1) To evaluate the anticancer potential of the synthesized compounds, a panel of six human and murine cancer cell lines representing different tissue origins was selected, including MCF-7 (human breast adenocarcinoma), MDA-MB-231 (human triple-negative breast cancer), A549 (human non-small cell lung cancer), HeLa (human cervical cancer), A375 (human melanoma), and B16-F10 (murine melanoma) (Table 2). […] DMSO was used as the vehicle control, and all experiments were performed in triplicate to ensure reproducibility.
(§2) Human breast cancer cells (MCF-7), human lung cancer cells (A549), human cervical cancer cells (HeLa), human triple-negative breast cancer cells (MDA-MB-231), and human malignant melanoma cells (A375) were cultured in DMEM. Mouse melanoma cells (B16F10) were maintained in RPMI-1640 medium. All media were supplemented with 10% fetal bovine serum and 1% penicillin-streptomycin (Life Technologies, Carlsbad, CA, USA) and maintained at 37 °C in a humidified atmosphere with 5% CO2.
(§3) The cytotoxicity of the test compounds was evaluated against MCF-7, A549, HeLa, MDA-MB-231, A375, and B16F10 using the CCK-8 assay. Cells were seeded into 96-well plates at a density of 5000 cells/well. After removing the medium, 100 μL of medium with 0.1% DMSO containing test compounds at different concentrations was added to each well and incubated at 37 °C for another 48 h. The CCK-8 solution was added and incubated for another 1 h, and then, the absorbance was detected with a microplate reader at a wavelength of 450 nm. The IC50 values were calculated by nonlinear regression analysis using GraphPad Prism 8.0.2. All the experiments were repeated at least three times.
Background: Formazan colour is commonly taken as a measure of viable cells.

The next assay relates to B16-F10 cells. Description: CCK-8 antiproliferative assay, B16-F10. The class given is cell-based, murine. The settings on record: Mus musculus, cell viability (CCK-8), 48 h. As for the experimental part:
as §1, §2, §3

In assay [1] the test system is MCF-7 cells. Description: Colony formation assay. Format: cell-based, human. The settings on record: 24 h treatment. The protocol: To assess the long-term antiproliferative potential of compound 3g, a colony formation assay was conducted using MCF-7 breast cancer cells.
MCF-7 cells (1000 cells/well) were counted and seeded in 6-well plates. After being cultured for 24 h at 37 °C, the medium was replaced with medium added with compound 3g at the indicated concentration. After 24 h of treatment, the medium was changed to normal. After being cultured for another 10–14 days, the colonies were fixed with 4% paraformaldehyde for 30 min and stained with 0.1% crystal violet for 15 min. Following washing with PBS, the colonies were then photographed and quantified using Image J 1.54g.
Figure 3 Inhibition of MCF-7 Cell Colony Formation by Compound 3g. (A) 3g inhibited the colony formation of MCF-7 cells at different concentrations in a dose-dependent manner. (B) Colony units in the different groups after treatment with 3g. Number of colonies was counted after treating MCF-7 cells with the indicated concentration of compound 3g for 24 h (n = 3, * p < 0.05, ** p < 0.01 vs. DMSO control, one-way ANOVA).

The subject of assay [2] is MCF-7 cells. Description: Transwell migration assay. Format: cell-based, human. The conditions noted are these: 24 h exposure, dose-dependent. As for the experimental part: The impact of compound 3g on MCF-7 cell migration was assessed using wound healing and transwell migration assays.
MCF-7 cells were seeded into six-well culture plates at a density of 5 × 10^5 cells per well for 24 h. After treatment with compounds 3g at different concentrations for 24 h, cells were harvested and inoculated on transwell filters ([…] pore size, Millipore, Billerica, MA, USA) in 24-well culture plates. The cells in the top chamber were cultured in the FBS-free medium, and those in the bottom chamber were cultured in the medium containing 10% FBS. The plates were cultivated for an additional 48 h, and the cells that had migrated to the bottom of the top chambers were fixed with 4% paraformaldehyde and then stained with 0.1% crystal violet. Images of migrated cells were obtained using an inverted microscope (Olympus IX73, Olympus Corporation, Tokyo, Japan).
Figure 4 Effect of compound 3g on the migration of MCF-7 breast cancer cells. (A) 3g inhibited the migration of MCF-7 cells at different concentrations in a dose-dependent manner. Representative images of wound healing were captured by an inverted microscope at 0 h and 24 h treatment. Scale bar = 200 μm. (B) Wound closure percentages in the different groups after treatment with 3g for 24 h. (C) Results of the transwell migration assay. […]

For assay [3], the system named is MCF-7 cells. Description: Cell cycle analysis by flow cytometry. The class given is cell-based, human. The conditions noted are these: 10 μM, 48 h. The protocol:
Given that microtubule polymerization inhibitors are known to disrupt mitosis and induce cell cycle arrest, we evaluated the effect of compound 3g on cell cycle progression in MCF-7 cells by flow cytometry.
MCF-7 cells were seeded in 6-well plates and cultured overnight. Cells were then treated with compound 3g at concentrations of 0.1, 1, and 10 μM for 48 h. After treatment, cells were collected and fixed in 70% ethanol at 4 °C overnight. The fixed cells were washed and resuspended in staining buffer containing RNase A and propidium iodide (PI), followed by incubation in the dark at 37 °C for 30 min. DNA content was subsequently analyzed by flow cytometry.
Figure 6 Cell cycle arrest induced by compound 3g. (A) Compound 3g induced G2/M arrest in MCF-7 cells. MCF-7 cells were incubated with varying concentrations of compound 3g (0.1, 1, and 10 μM) for 48 h. The percentages of cells in different phases of the cell cycle were analyzed by FlowJo 10.8.1. (B) Histograms display the percentage of cell cycle distribution after treatment with compound 3g. Data are expressed as mean ± standard deviation from three independent experiments. Statistical significance was determined by one-way ANOVA followed by Tukey’s post hoc test.
(In general: Flow cytometry measures light scatter and fluorescence of single cells or particles in a stream.)

As for `COc1cc(-n2ccc3ccc(-c4ccc(C)c(C#N)c4)cc32)cc(OC)c1OC` [3g, 2-methyl-5-(1-(3,4,5-trimethoxyphenyl)-1H-indol-6-yl)benzonitrile], the IC50 in the assay with MDA-MB-231 cells was 1.61 ± 0.004 µM; with B16-F10 cells it was 1.69 ± 0.41 µM. The “clonogenic survival / colony formation” value in the assay with MCF-7 cells [1] (0.1 μM) is on record as “moderate reduction”. In addition, the colony formation entry in the assay with MCF-7 cells [1] (1 μM) is “progressively greater inhibition”; in the assay with MCF-7 cells [1] (10 μM), “near-complete suppression”. Besides, the “number of cells traversing the membrane” value in the assay with MCF-7 cells [2] is on record as “significant reduction”. In addition, the “cells in the G2/M phase” value in the assay on MCF-7 cells [3] is reported as “marked accumulation”.

For orientation: IC50 means the concentration that gives 50% inhibition. Low values mean inhibition by little substance, high ones a need for much substance.
